For seven molecules, permeability results are on record in ChEMBL document CHEMBL1155780, “Lack of aquaporin-4 water transport inhibition by antiepileptics and arylsulfonamides” (Bioorg Med Chem, 2008).

Sequence of Aquaporin-4 (Homo sapiens) (P55087 whole entry): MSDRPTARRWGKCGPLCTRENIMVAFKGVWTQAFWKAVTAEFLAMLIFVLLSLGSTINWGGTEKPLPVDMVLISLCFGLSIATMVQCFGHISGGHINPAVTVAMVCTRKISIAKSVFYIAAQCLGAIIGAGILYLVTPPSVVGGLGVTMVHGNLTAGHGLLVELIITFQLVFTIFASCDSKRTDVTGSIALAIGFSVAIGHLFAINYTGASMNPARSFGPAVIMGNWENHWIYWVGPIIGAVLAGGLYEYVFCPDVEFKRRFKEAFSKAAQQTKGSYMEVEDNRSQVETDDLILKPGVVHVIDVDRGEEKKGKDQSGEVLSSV

The test addresses Aquaporin-4 (Homo sapiens) (UniProt P55087). To be noted: FRT.
Description: Inhibition of AQP4 expressed in rat FRT cells assessed as osmotic water permeability at 100 uM after 15 mins by stopped-flow light scattering method
The molecule `CC(=O)Nc1ccc(S(N)(=O)=O)cc1` showed a permeability of 12900 ×10⁻⁶ cm/s.

As to `CC1(C)O[C@@H]2[C@@H](CO[C@@]3(COS(N)(=O)=O)OC(C)(C)O[C@@H]23)O1`, the permeability turned out to be 12900 ×10⁻⁶ cm/s.

`CCOc1ccc2nc(S(N)(=O)=O)sc2c1` registered a permeability of 12900 ×10⁻⁶ cm/s.

`O=C1NC(=O)C(c2ccccc2)(c2ccccc2)N1` registered a permeability of 12900 ×10⁻⁶ cm/s.

Molecule `CNS(=O)(=O)Cc1ccc2[nH]cc(CCN(C)C)c2c1` returned a permeability of 12900 ×10⁻⁶ cm/s.

As to `NS(=O)(=O)Cc1noc2ccccc12`, the permeability was found to be 12900 ×10⁻⁶ cm/s.

Consider `CC(=O)Nc1nnc(S(N)(=O)=O)s1`, for which the permeability was determined as 12900 ×10⁻⁶ cm/s.
